In publication PMC7072103, “Simultaneous Determination of 13 Constituents of Radix Polygoni Multiflori in Rat Plasma and Its Application in a Pharmacokinetic Study” (International Journal of Analytical Chemistry, 2020):
“Also recorded” adds a separate entry of the source. Where two headings read alike, the source gives them in different places. Each block holds one compound with its values, some of them ahead of it.

Key:
[1] = Pharmacokinetic study in rats after oral administration of RPM extract (UPLC-MS/MS of plasma); assay type: in vivo, Sprague-Dawley rats; conditions: for Latest plasma sample time at which the constituent was detected / Detection in rat plasma after oral RPM extract: RPM extract 36 g/kg oral; for Latest plasma sample time at which the constituent was detected: sampling up to 24 h; for Detection in rat plasma after oral RPM extract: real plasma samples
Experimental: The analysis was performed on an AB Sciex API 5500 Q Trap mass spectrometer (Toronto, Canada), interfaced with a Waters Acquity UPLC separation module. Empower 3.0 and Analyst 1.62 software were used to control UPLC and mass spectrometer, respectively.
Chromatographic separation was achieved on a waters HSS C18 column (100 × 2.1 mm, 1.8 μm, kept at 40°C) using a mobile phase containing 0.025% formic acid that consisted of solvent A (water) and solvent B (acetonitrile). The mobile phase was delivered at 0.3 mL/min, and a gradient program was used as follows: 0-1 min, held 5% to 25% solvent B; 1–3.5 min, linear gradient from 25% to 35% solvent B; 3.5–5 min, linear gradient from 35% to 40% solvent B; 5-6 min, linear gradient from 40% to 60% solvent B; 6-6.1 min, linear gradient from 60% to 95% solvent B; 6.1–8 min, linear gradient from 95% to 100% solvent B; and 8-9 min, held 5% solvent B.
The MS detection was set in positive multiple reaction monitoring (MRM) mode for the analytes and IS. The turbo spray temperature was maintained at 500°C. The nebulizer gas (gas 1), heater gas (gas 2), and curtain gas was set at 45, 50, and 45 psi, respectively. The interface heater was on. The precursor ion, corresponding product ion and dwell time along with declustering potential (DP), entrance potential (EP), collision energy (CE), and collision exit potential (CXP) for each compound were optimized with standard substance. The dwell time was 50 ms for all analytes. The EP and CXP were set at –10 V and −16 V, respectively.
Sample preparations were made using the protein precipitation process. 50 μL thawed plasma, 10 μL IS working solution (puerarin 10 μg/mL), and 150 μL acetonitrile were added to a 1.5 mL tube in that order. After vortexed for 5 min and centrifuged at 12,000 g for 5 min at 4°C, 150 μL of the supernatant was transferred and a 5 μL was injected into the UPLC-MS/MS instrument for analysis.
Male Sprague-Dawley rats (200–240 g) were obtained from Beijing Vital River Laboratory Animal Technology Co., Ltd. (Beijing, China) (SCXK 2016(jing)-0006). The animals were maintained in SPF animal room at temperature 22 ± 2°C, 60 ± 5% humidity, and 12/12 h day/night cycle. All procedures were approved by the Institutional Animal Ethics Committee and performed in accordance with the Regulations of Experiment Animal Administration issued by the State Committee of Science and Technology of China. RPM extract suspended in an equal volume of 5% CMC-Na solution and orally administered to the six rats at a single dose of 36 g/kg (dose calculated as grams of crude materials used to create the extract per kilogram of rat body weight). The dose was set at a subtoxic level to investigate the pharmacokinetic profiles of the constituents of RPM and were approximately 72 times the upper dose (6 g/day) of human recommended by the 2015 edition of Chinese Pharmacopoeia (converted to rat dose based on body surface area conversion). The calculated doses of compounds based on the contents in the extract were 7.38, 14.8, 13.7, 8.82, 15.5, 11.2, 55.8, 1.08, 1170, 11.3, 25.7, 131.4, and 13.0 mg/kg for chrysophanol, emodin, aloe-emodin, rhein, physcion, questin, citreorosein, questinol, TSG, TG, CG, EG, and PG, respectively. Rats were fasted for at least 12 h before the experiments and had free access to water. Blood samples (∼0.25 mL) were collected from the retinal venous plexus into heparinized 1.5 mL polythene tubes before administration and 5, 15, and 30 min and 1, 2, 4, 6, 8, 12, and 24 h after dosing RPM extract at dose of 36 g/kg. The plasma was immediately separated from blood samples and stored frozen at −70°C until analysis.
The pharmacokinetic parameters were calculated using the pharmacokinetic software Phoenix® WinNonlin®, version 7.0 (Scientific Consulting Inc., Apex, NC, USA). The peak plasma concentration (Cmax) and time to reach Cmax (Tmax) were read directly from the experimental data. […]

[2] = Stability of the analytes in rat plasma and processed plasma samples; assay type: in vitro ADME; conditions: for Stability, post-preparative: acetonitrile-precipitated plasma supernatant, 24 h at 6°C in autosampler; for Stability, long-term (–70 °C) / Stability, short-term / Stability, freeze–thaw (three cycles): rat plasma; for Stability, long-term (–70 °C): 3 months at −70°C; for Stability, short-term: 4 h at room temperature; for Stability, freeze–thaw (three cycles): −70°C to room temperature
Experimental: The stability of the 13 analytes in rat plasma were assessed by analyzing samples spiked 0.2, 2.7, and 58.3 ng/mL for emodin, aloe-emodin, questin, citreorosein, questinol, TG, CG, EG, PG; 0.6, 8.1, and 175 ng/mL for TSG; 1, 13.5, and 291.6 ng/mL for rhein, physcion; and 2, 27, and 583.2 ng/mL for chrysophanol, respectively, under four conditions: (1) short-term storage for 4 h at room temperature; (2) long-term storage for (3 months at −70°C; (3) three freeze-thaw cycles; and (4) posttreatment storage for 24 h at 6°C setting in UPLC autosampler. The concentrations obtained were compared with the nominal values of the spiked samples. The stability was calculated as the percent of the measured concentration to the initial concentration at time zero. The analytes were considered stable if the assay values were within the acceptable limit of accuracy (85.0∼115%).

[3] = male, Sprague-Dawley, rat, plasma, po, 36 g/kg, rat plasma, single oral dose of RPM extract 36 g/kg, n = 6, mean ± SD, read-out: AUC0–t
[4] = male, Sprague-Dawley, rat plasma, single oral dose of RPM extract 36 g/kg, n = 6, mean ± SD, read-out: AUC0–∞
[5] = male, Sprague-Dawley, rat plasma, single oral dose of RPM extract 36 g/kg, n = 6, mean ± SD, read-out: Cmax
[6] = male, Sprague-Dawley, rat plasma, single oral dose of RPM extract 36 g/kg, n = 6, mean ± SD, read-out: MRT0–∞
[7] = male, Sprague-Dawley, rat plasma, single oral dose of RPM extract 36 g/kg, n = 6, mean ± SD, read-out: Tmax
[8] = male, Sprague-Dawley, rat plasma, single oral dose of RPM extract 36 g/kg, n = 6, mean ± SD, read-out: t1/2 (converted)
[9] = high QC (58.3 ng/mL; TSG 175; rhein, physcion 292; chrysophanol 583)
[10] = low QC (0.2 ng/mL; TSG 0.6; rhein, physcion 1; chrysophanol 2)
[11] = middle QC (2.7 ng/mL; TSG 8.1; rhein, physcion 13.5; chrysophanol 27)
[12] = male, Sprague-Dawley, in vivo, rat plasma, single oral dose of RPM extract 36 g/kg, n = 6, mean ± SD, read-out: AUC0–∞
[13] = male, Sprague-Dawley, in vivo, rat plasma, single oral dose of RPM extract 36 g/kg, n = 6, mean ± SD, read-out: Cmax
[14] = male, Sprague-Dawley, in vivo, rat plasma, single oral dose of RPM extract 36 g/kg, n = 6, mean ± SD, read-out: MRT0–∞
[15] = male, Sprague-Dawley, in vivo, rat plasma, single oral dose of RPM extract 36 g/kg, n = 6, mean ± SD, read-out: Tmax
[16] = male, Sprague-Dawley, in vivo, rat plasma, single oral dose of RPM extract 36 g/kg, n = 6, mean ± SD, read-out: t1/2 (converted)
[17] = male, Sprague-Dawley, rat, in vivo, po, 36 g/kg, rat plasma, single oral dose of RPM extract 36 g/kg, n = 6, mean ± SD, read-out: AUC0–t
[18] = rat plasma, single oral dose of RPM extract 36 g/kg, n = 6, mean ± SD
[19] = male, Sprague-Dawley, rat, in vivo, po, 36 g/kg

AUC(0-t) [1, 3]: 21.2 ± 7.38 ng·h/mL
AUC(0-inf) [1, 4]: 21.7 ± 7.48 ng·h/mL
Cmax [1, 5]: 18.7 ± 4.06 ng/mL
MRT inf [1, 6]: 2.1 ± 0.24 h
Tmax [1, 7]: 0.11 ± 0.07 h
half-life [1, 8]: 2 ± 0.63 h
Compound: COc1cc(O[C@@H]2O[C@H](CO)[C@@H](O)[C@H](O)[C@H]2O)c2c(O)c(C(C)=O)c(C)cc2c1 [TG, torachrysone-8-O-glucoside]

Latest plasma sample time at which the constituent was detected [1]: ≤ 6 h
AUC(0-t) [1, 3]: 4.28 ± 1.64 ng·h/mL
AUC(0-inf) [1, 4]: 10.3 ± 1.87 ng·h/mL
Cmax [1, 5]: 1.9 ± 0.56 ng/mL
MRT inf [1, 6]: 6.76 ± 2.06 h
Tmax [1, 7]: 2.22 ± 1.76 h
half-life [1, 8]: 3.18 ± 0.62 h
Compound: Cc1cc(O)c2c(c1)C(=O)c1cccc(O)c1C2=O [Chrysophanol, chrysophanol]

Compound: Cc1cc(O)c2c(c1)C(=O)c1cc(O)cc(O)c1C2=O [Emodin, 1,3,8-trihydroxy-6-methylanthracene-9,10-dione]
Stability, post-preparative [2, 9]: 98.1%
Stability, post-preparative [2, 10]: 101%
Stability, post-preparative [2, 11]: 103%
Stability, long-term (–70 °C) [2, 9]: 101%
Stability, long-term (–70 °C) [2, 10]: 100%
Stability, long-term (–70 °C) [2, 11]: 102%
Stability, short-term [2, 9]: 106%
Stability, short-term [2, 10]: 93.6%
Stability, short-term [2, 11]: 105%
Stability, freeze–thaw (three cycles) [2, 9]: 104%
Stability, freeze–thaw (three cycles) [2, 10]: 102%
Stability, freeze–thaw (three cycles) [2, 11]: 104%
AUC(0-inf) [1, 12]: 801 ± 233 ng·h/mL
Cmax [1, 13]: 175 ± 33.8 ng/mL
MRT inf [1, 14]: 11.8 ± 5.27 h
Tmax [1, 15]: 0.19 ± 0.09 h
half-life [1, 16]: 8.37 ± 4.17 h
AUC(0-t) [1, 17]: 801 ± 187 ng·h/mL
AUC0–t [1, 18]: 686 ± 187 ng·h/mL

AUC(0-t) [1, 3]: 1870 ± 554 ng·h/mL
AUC(0-inf) [1, 4]: 1870 ± 581 ng·h/mL
Cmax [1, 5]: 1740 ± 401 ng/mL
MRT inf [1, 6]: 3.66 ± 0.97 h
Tmax [1, 7]: 0.33 ± 0.13 h
half-life [1, 8]: 5.98 ± 2.62 h
AUC0–t [1, 18]: 1811 ± 554 ng·h/mL
Compound: OC[C@H]1O[C@@H](Oc2c(O)cc(O)cc2/C=C/c2ccc(O)cc2)[C@H](O)[C@@H](O)[C@@H]1O [TSG, 2,3,5,4′-tetrahydroxystilbene-2-O-β-D-glucoside]

Relative bioavailability versus emodin (AUC0–t normalized by molecular weight and dose) ([1]; male, Sprague-Dawley, rat, in vivo, po): 15.8%
AUC0–t [1, 19]: 131 ± 96.9 ng·h/mL
AUC0–t relative to that of emodin [1, 19]: 6.0 fold
AUC(0-inf) [1, 19]: 134 ± 96.4 ng·h/mL
Cmax [1, 19]: 149 ± 147 ng/mL
MRT inf [1, 19]: 5.32 ± 1.85 h
Tmax [1, 19]: 0.19 ± 0.09 h
half-life [1, 19]: 3.97 ± 1.31 h
AUC(0-t) ([1]; male, Sprague-Dawley, rat, in vivo, po, 36 g/kg, AUC0–t): 134 ± 96.4 ng·h/mL
Compound: O=C1c2cc(O)cc(O)c2C(=O)c2c(O)cc(CO)cc21 [Citreorosein, 1,3,8-trihydroxy-6-(hydroxymethyl)anthracene-9,10-dione]

Compound: O=C1c2cccc(O)c2C(=O)c2c(O)cc(CO)cc21 [Aloe-emodin, aloe-emodin]
Stability, post-preparative [2, 9]: 92.6%
Stability, post-preparative [2, 10]: 96.4%
Stability, post-preparative [2, 11]: 102%
Stability, long-term (–70 °C) [2, 9]: 102%
Stability, long-term (–70 °C) [2, 10]: 103%
Stability, long-term (–70 °C) [2, 11]: 98.4%
Stability, short-term [2, 9]: 104%
Stability, short-term [2, 10]: 105%
Stability, short-term [2, 11]: 105%
Stability, freeze–thaw (three cycles) [2, 9]: 101%
Stability, freeze–thaw (three cycles) [2, 10]: 99%
Stability, freeze–thaw (three cycles) [2, 11]: 97.2%
Latest plasma sample time at which the constituent was detected [1]: ≤ 12 h
AUC(0-inf) [1, 12]: 8.46 ± 3.44 ng·h/mL
Cmax [1, 13]: 11.3 ± 3.1 ng/mL
MRT inf [1, 14]: 3.17 ± 1.54 h
Tmax [1, 15]: 0.22 ± 0.07 h
half-life [1, 16]: 3.44 ± 1.4 h
AUC(0-t) [1, 17]: 7.28 ± 3.25 ng·h/mL

Latest plasma sample time at which the constituent was detected [1]: ≤ 2 h
AUC(0-t) [1, 3]: 1.11 ± 0.63 ng·h/mL
AUC(0-inf) [1, 4]: 2.31 ± 0.51 ng·h/mL
Cmax [1, 5]: 1.06 ± 0.24 ng/mL
MRT inf [1, 6]: 1.83 ± 0.56 h
Tmax [1, 7]: 0.46 ± 0.1 h
half-life [1, 8]: 1.18 ± 0.39 h
Compound: O=C(O)c1cc(O)c2c(c1)C(=O)c1cccc(O)c1C2=O [Rhein, rhein]

Detection in rat plasma after oral RPM extract [1]: not detected
Detection in rat plasma after oral RPM extract ([1]; listed as physcion): too low to be detected
Compound: COc1cc(O)c2c(c1)C(=O)c1cc(C)cc(O)c1C2=O [Physcion, physcion]

Compound: COc1cc(O)cc2c1C(=O)c1c(O)cc(C)cc1C2=O [Questin, questin]
Detection in rat plasma after oral RPM extract [1]: not detected; also recorded: too low to be detected
